Consider 1 compound from patent publication US10702568B2, “Compositions containing silymarin and sulfoalkyl ether cyclodextrin and methods of using the same” (UNIVERSITY OF KANSAS, priority 2015, dated 2020).

Data set [1] in a line: Permeation across the porcine intestine (Franz diffusion cell). In kind it is in vitro ADME. The settings on record: 37° C., receiver PBS pH 7.4. The procedure: The Silymarin-CAPTISOL® complex was tested for its permeability in the GI tract using the porcine intestine and the silymarin solution without CAPTISOL® as a control sample. Freshly excised porcine intestine was cleaned and sandwiched between the two chambers of a Franz diffusion cell with an active diffusion area of 0.64 cm^2. The donor chamber was filled with 0.5 ml of CAPTISOL® enabled silymarin solution (prepared using ligand method) or pure silymarin in Phosphate buffered saline (PBS): Ethanol (80:20) used as a positive control. Receiver chamber was filled with 5 ml of PBS, pH 7.4, which is stirred at 600 rpm with a 3 mm magnetic stir bar at 37° C. temperature maintained with a circulating water bath. 200 μL of buffer from receiver side was withdrawn at different time intervals (0, 1, 2, 4, 6 and 8 h) and equal volume was replaced with fresh PBS buffer. Above samples were transferred into vials and subjected to HPLC analysis.
The control sample was prepared by adding excess of the silymarin extract to Phosphate buffered saline (PBS): Ethanol (80:20). These samples were shook at room temperature for 24 hr, and at equilibrium the samples were centrifuged at 10,000 RPM and filtered using Millipore (0.22 μm) syringe filter. The filtrates were analyzed using HPLC for Taxifolin, Silychristin, Silydianin, Silybin A, Silybin B, Isosilybin A and Isosilybin B after appropriate dilution. […]

Data set [2] can be described thus: Log D of silymarin components (octanol/buffer, HPLC). Type of data set: physicochemical. The settings on record: octanol/universal buffer pH 7.4, 16 h shaking at room temperature; read-out: Log D (7.4 pH). The procedure: Silymarin components including taxifolin, silydianin, silychristin, silybin A, silybin B, isosilybin A, and isosilybin B were tested for their solubility in water and also for their Log D value. The silymarin extract was obtained from Indena® (Indena Code: 9065110). The HPLC system consisted of Waters system equipped with performance PLUS inline degasser along dual λ absorbance detector set at 288 nm. The chromatographic separation of silymarin constituents was achieved on a Symmetry Shield RP18 column (150×4.6 mm, 5 μm); which was maintained at ambient room temperature conditions. The binary mobile phase system consisted of reservoir A (methanol: 10 mM ammonium acetate pH 5 [65:35 v/v]) and reservoir B (10 mM ammonium acetate, pH 5) were run as per gradient program (0-1.9 min: 25% A and 75% B; 2.0-14.9 min: 80% A and 20% B and 15-37.9 min: 80% A and 20% B and 38-40 min: 25% A and 75% B). The flow rate was 1 mL/min throughout the analytical run.
To determine the Log D of silymarin components, the silymarin extract (2 mg) was dissolved in 100% DMSO and then used for the experiment. Different buffers between pH ranges of 1.0 to 12 were prepared by using universal buffer stock containing 25 mM hydrochloric acid, 25 mM citric acid, 25 mM phosphoric acid, 30 mM boric acid and 20 mM sodium chloride. About 45 mL of universal buffer was titrated with Sodium hydroxide (5M) to obtain desired pH. A 10 μL of silymarin stock solution was spiked into Eppendorf tube containing 500 μL each of a buffer and presaturated octanol. This mixture was vortexed for 5 minutes and kept for shaking at room temperature. After 16 h, the mixture was centrifuged at 10,000 RPM for 30 minutes. After centrifugation buffer and octanol phases were separated, both phases were diluted with acetonitrile (1:1) and subject to HPLC analysis for quantitation of individual components of silymarin. The Log D values of each compound at a pH was determined by Log D (pH)=Log [Organic (peak area)/Aqueous (peak area)].

Data set [3] can be described thus: Mutual phase solubility study of Silymarin-CAPTISOL® complex (method A, method B). Type of data set: physicochemical. On the procedure:
Two methods, method A and method B, were used to prepare the silymarin-CAPTISOL® complexes and the phase solubility of the various components in the complexes were measured and compared. The silymarin extract was obtained from Indena® (Indena Code: 9065110).
In method A, the Silymarin-CAPTISOL® complex was prepared through a hot extraction method. […] The filtrates were analyzed using HPLC for Taxifolin, Silychristin, Silydianin, Silybin A, Silybin B, Isosilybin A and Isosilybin B after appropriate dilution.
In method B, the Silymarin-CAPTISOL® complex was prepared by combining the CAPTISOL® and silymarin at ambient temperature: 120 mg of the extract was incorporated in 0 10, 20, 40, 60, 80 and 100 mM concentrations of CAPTISOL® solution in water. These samples were shook at room temperature for 3 days. At equilibrium, samples were centrifuged at 10,000 RPM and filtered using Millipore (0.22 μm) syringe filter. The filtrates were analyzed using HPLC for Taxifolin, Silychristin, Silydianin, Silybin A, Silybin B, Isosilybin A and Isosilybin B after appropriate dilution.
The solubility of the Silymarin-CAPTISOL® complexes prepared using method A and method B were measured.

For the compound `O=C1c2c(O)cc(O)cc2O[C@H](c2ccc(O)c(O)c2)[C@H]1O` [Taxifolin], the “Apparent permeability coefficient Papp × 10^−3” value was 9.46 × 10^−3 in data set [1] (Silymarin CAPTISOL® complex in donor chamber) and 1.12 × 10^−3 in data set [1] (Silymarin in Ethanol:PBS (20:80) (control)). For the same compound, the logD at 16 h in data set [2] is 1.35. The “number of fold increase in solubility” value in data set [3] (CAPTISOL® 10 mM, Method A (hot extraction 70-75° C., 60 minutes)) came to 1.95 fold; in data set [3] (CAPTISOL® 10 mM, Method B (ambient temperature, 3 days)) it was 1.97 fold; in data set [3] (CAPTISOL® 20 mM, Method A (hot extraction 70-75° C., 60 minutes)) it was 3.32 fold; in data set [3] (CAPTISOL® 20 mM, Method B (ambient temperature, 3 days)), 3.06 fold; in data set [3] (CAPTISOL® 40 mM, Method A (hot extraction 70-75° C., 60 minutes)), 3.54 fold; in data set [3] (CAPTISOL® 40 mM, Method B (ambient temperature, 3 days)), 3.39 fold. Moreover, the “number of fold increase in solubility” value in data set [3] (CAPTISOL® 60 mM, Method A (hot extraction 70-75° C., 60 minutes)) was 4.26 fold; in data set [3] (CAPTISOL® 60 mM, Method B (ambient temperature, 3 days)), 3.48 fold; in data set [3] (CAPTISOL® 80 mM, Method A (hot extraction 70-75° C., 60 minutes)), 4.51 fold; in data set [3] (CAPTISOL® 80 mM, Method B (ambient temperature, 3 days)), 3.47 fold; in data set [3] (CAPTISOL® 100 mM, Method A (hot extraction 70-75° C., 60 minutes)), 4.77 fold; in data set [3] (CAPTISOL® 100 mM, Method B (ambient temperature, 3 days)), 3.72 fold.
